According to US7250438B2, “Anti-bacterial and anti-cancer spiro beta-lactone/gamma-lactams” (Nereus Pharmaceuticals, Inc., priority 2004, dated 2007):

Experiments:
[1] = Qualitative solubility of the isolated compound; assay type: physicochemical; details: CHCl3, MeOH, and DMSO
E. faecium - Van^r = assay: MIC, serial micro broth dilution (NCCLS M7-A5); assay type: cell-based; details: Enterococcus faecium, Mueller-Hinton broth, 35° C., 18 hours
Procedure: (§1) Minimum inhibitory concentrations (MICs) were determined according to the National Committee for Clinical Laboratory Standards (NCCLS) susceptibility test guideline M7-A5 to quantify the anti-microbial activity of the compound of Formula (VI) against both gram-positive and gram-negative bacteria. Ferraro, M. 2001 Methods for Dilution Antimicrobial Susceptibility Tests for Bacteria that Grow Aerobically; Approved Standard (NCCLS), Villanova, which is incorporated herein by reference in its entirety. The serial micro broth dilution method used BBL Mueller-Hinton broth (cation adjusted) except for the […] which was tested in BBL Mueller-Hinton broth II (cation adjusted) with lysed horse blood. The final bacterial inoculum contained approximately 5×10^5 CFU/ml and was run on microtiter plates. The volume of each well was 100 μl and the plates were incubated at 35° C. for 18 hours. The MIC was defined as the lowest drug concentration that prevented visible growth of the bacterium. The compound was active versus several microorganisms, especially gram-positive species.

E. coli - imp = assay: MIC, serial micro broth dilution (NCCLS M7-A5); assay type: cell-based; details: Escherichia coli, 18 h
Procedure: as §1

[2] = system: Streptococcus pneumoniae - penicillin sensitive; assay: MIC, serial micro broth dilution (NCCLS M7-A5); assay type: cell-based; details: Mueller-Hinton broth II with lysed horse blood, 35° C., 18 hours
Procedure: as §1

[3] = system: Staphylococcus aureus - MRSA; assay: MIC, serial micro broth dilution (NCCLS M7-A5); assay type: cell-based; details: Mueller-Hinton broth, 35° C., 18 hours
Procedure: as §1

E. faecalis - Van^s = assay: MIC, serial micro broth dilution (NCCLS M7-A5); assay type: cell-based; details: Enterococcus faecalis, Mueller-Hinton broth, 35° C., 18 hours
Procedure: as §1

[4] = system: Staphylococcus aureus - MSSA; assay: MIC, serial micro broth dilution (NCCLS M7-A5); assay type: cell-based; details: Mueller-Hinton broth, 35° C., 18 hours
Procedure: as §1

[5] = system: Streptococcus pneumoniae - penicillin resistant; assay: MIC, serial micro broth dilution (NCCLS M7-A5); assay type: cell-based; details: Mueller-Hinton broth II with lysed horse blood, 35° C., 18 hours
Procedure: as §1

B16-F10 cells = assay: Growth inhibition of murine melanoma B16-F10 cells (Resazurin); assay type: cell-based; details: Mus musculus, 48 hours of drug exposure
Procedure: B16-F10 (ATCC; CRL-6475) a murine melanoma cell line was maintained in complete Dulbecco's Modification of Eagle's Medium (DMEM) (DMEM supplemented with 10% (v/v) Fetal bovine serum, 2 mM glutamine, 10 mM HEPES and Penicillin/Streptomycin at 100 IU/ml and 100 μg/ml respectively). The cells were cultured in an incubator at 37° C, 5% CO2 and 95% humidified air.
For cell growth inhibition assays, B16-F10 cells were seeded at 1.25×10^3 cells/well in 90 μl complete media into Coming 3904 black-walled, clear-bottom tissue culture plates and the plates were incubated overnight to allow cells to establish and enter log phase growth. 20mM stock solutions of the compound of Formula (VI) were prepared in 100% DMSO. 10× concentrated serial dilutions of the compound of Formula (VI) were prepared in appropriate culture medium. […]
Following 48 hours of drug exposure, 10 μl of 0.2 mg/ml Resazurin (obtained from Sigma-Aldrich Chemical Co.) in Mg^2+, Ca^2+ free phosphate buffered saline was added to each well and the plates were returned to the incubator for 3–6 hours. Since living cells metabolize Resazurin, the fluorescence of the reduction product of Resazurin was measured using a Fusion microplate fluorometer (Packard Bioscience) with λex=535 nm and λem=590 nm filters. […]

COC(CC(C)C(O)/C=C/C=C/CNC(=O)C(C)(C)C(O)\C(C)=C/C=C\C=C\C(C)=C(/C)[N+](=O)[O-])C1(O)C(C)C(=O)N(C)C12C(=O)OC2C (stereo not drawn) [Formula (VI)]
solubility (qualitative) [1]: qualitatively soluble in CHCl3, MeOH, and DMSO
MIC (E. faecium - Van^r): 20 µg/mL
MIC (E. coli - imp): 12 µg/mL
MIC [2]: 2 µg/mL
MIC [3]: 5 µg/mL
MIC (E. faecalis - Van^s): 14 µg/mL
MIC [4]: 4 µg/mL
MIC [5]: 1.5 µg/mL
EC50 (B16-F10 cells): 9.6 µM
